Reference: PubChem BioAssay (NCI)
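Exposure lasted 48 hours, with cells grown in 96-well plates and compounds tested at five concentrations. The concentration for 50% growth inhibition is given as GI50. Definition used: TGI = concentration required for complete inhibition of growth.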

Legend:
Test in all cases: inhibition of tumour cell growth, NCI panel, 48 h
[1] = tested on: NCI/ADR-RES ovarian
[2] = tested on: SK-MEL-5 melanoma
[3] = tested on: HOP-92 NSCLC
[4] = tested on: UACC-257 melanoma
[5] = tested on: K-562 leukemia
[6] = tested on: OVCAR-4 ovarian
[7] = tested on: DU-145 prostate
[8] = tested on: SN12C renal
[9] = tested on: RPMI-8226 leukemia
[10] = tested on: 786-0 renal
[11] = tested on: RXF 393 renal
[12] = tested on: HCC-2998 colon
[13] = tested on: OVCAR-8 ovarian
[14] = tested on: SK-OV-3 ovarian
[15] = tested on: BT-549 breast
[16] = tested on: MDA-MB-231 breast
[17] = tested on: HCT-15 colon
[18] = tested on: SK-MEL-28 melanoma
[19] = tested on: SK-MEL-2 melanoma
[20] = tested on: HS 578T breast
[21] = tested on: SNB-19 CNS
[22] = tested on: LOX IMVI melanoma
[23] = tested on: T-47D breast
[24] = tested on: NCI-H226 lung
[25] = tested on: HT29 colon
[26] = tested on: SW-620 colon
[27] = tested on: EKVX NSCLC
[28] = tested on: MCF7 breast
[29] = tested on: CAKI-1 renal
[30] = tested on: SNB-75 CNS
[31] = tested on: CCRF-CEM leukemia
[32] = tested on: ACHN renal
[33] = tested on: MOLT-4 leukemia
[34] = tested on: U251 CNS
[35] = tested on: SF-539 CNS
[36] = tested on: SF-268 CNS
[37] = tested on: A498 renal
[38] = tested on: HL-60(TB) leukemia
[39] = tested on: M14 melanoma
[40] = tested on: MALME-3M melanoma
[41] = tested on: IGROV1 ovarian
[42] = tested on: SR leukemia
[43] = tested on: COLO 205 colon
[44] = tested on: MDA-MB-435
[45] = tested on: NCI-H23 lung
[46] = tested on: HCT-116 colon
[47] = tested on: TK-10 renal
[48] = tested on: UO-31 renal
[49] = tested on: NCI-H460 lung
[50] = tested on: OVCAR-5 ovarian
[51] = tested on: SF-295 CNS
[52] = tested on: KM12 colon
[53] = tested on: HOP-62 NSCLC
[54] = tested on: NCI-H522 lung
[55] = tested on: A549 NSCLC
[56] = tested on: OVCAR-3 ovarian
[57] = tested on: PC-3 prostate
[58] = tested on: UACC-62 melanoma

Compound: O=C(Nc1n[nH]c2nc(-c3ccc(O)cc3)c(Br)cc12)C1CC1
- GI50 [1]: 6.49 µM
- TGI [1]: > 25 µM
- GI50 [2]: 0.607 µM
- TGI [2]: 4.07 µM
- GI50 [3]: 8.66 µM
- TGI [3]: 18.3 µM
- GI50 [4]: 6.36 µM
- TGI [4]: 17 µM
- GI50 [5]: 2.86 µM
- TGI [5]: > 25 µM
- GI50 [6]: 5.17 µM
- TGI [6]: 14.4 µM
- GI50 [7]: 3.8 µM
- TGI [7]: 20.4 µM
- GI50 [8]: 3.41 µM
- TGI [8]: 20.1 µM
- GI50 [9]: 6.05 µM
- TGI [9]: 15.7 µM
- GI50 [10]: 4.55 µM
- TGI [10]: 14.3 µM
- GI50 [11]: 1.18 µM
- TGI [11]: 5.02 µM
- GI50 [12]: 4.76 µM
- TGI [12]: > 20.3 µM
- GI50 [13]: 4.71 µM
- TGI [13]: > 22.1 µM
- GI50 [14]: 2.67 µM
- TGI [14]: 11.8 µM
- GI50 [15]: 5.78 µM
- TGI [15]: 19.8 µM
- GI50 [16]: 5.52 µM
- TGI [16]: 16.8 µM
- GI50 [17]: 3.77 µM
- TGI [17]: > 23.2 µM
- GI50 [18]: 3.85 µM
- TGI [18]: 9.88 µM
- GI50 [19]: 3.07 µM
- TGI [19]: 7.17 µM
- GI50 [20]: 4.15 µM
- TGI [20]: 21.6 µM
- GI50 [21]: 6.96 µM
- TGI [21]: > 24.1 µM
- GI50 [22]: 1.75 µM
- TGI [22]: 13.1 µM
- GI50 [23]: 3.81 µM
- TGI [23]: 14.5 µM
- GI50 [24]: 3.14 µM
- TGI [24]: 13.5 µM
- GI50 [25]: 2.04 µM
- TGI [25]: 13.8 µM
- GI50 [26]: 4.36 µM
- TGI [26]: > 25 µM
- GI50 [27]: 6.34 µM
- TGI [27]: 19 µM
- GI50 [28]: 1.05 µM
- TGI [28]: 10.2 µM
- GI50 [29]: 3.11 µM
- TGI [29]: 16.5 µM
- GI50 [30]: 6.21 µM
- TGI [30]: 12.5 µM
- GI50 [31]: 1.82 µM
- TGI [31]: > 25 µM
- GI50 [32]: 2.62 µM
- TGI [32]: > 21.8 µM
- GI50 [33]: 5.13 µM
- TGI [33]: > 25 µM
- GI50 [34]: 4.39 µM
- TGI [34]: > 20.2 µM
- GI50 [35]: 1.34 µM
- TGI [35]: 6.27 µM
- GI50 [36]: 4.74 µM
- TGI [36]: 16.5 µM
- GI50 [37]: 4.65 µM
- TGI [37]: 14.4 µM
- GI50 [38]: 2.79 µM
- TGI [38]: 15.4 µM
- GI50 [39]: 3.97 µM
- TGI [39]: 11.3 µM
- GI50 [40]: 4.62 µM
- TGI [40]: 12.5 µM
- GI50 [41]: 5.75 µM
- TGI [41]: > 20.6 µM
- GI50 [42]: 1.53 µM
- TGI [42]: > 15.4 µM
- GI50 [43]: 3.18 µM
- TGI [43]: 8.76 µM
- GI50 [44]: 2.71 µM
- TGI [44]: 7.29 µM
- GI50 [45]: 4.78 µM
- TGI [45]: 16.8 µM
- GI50 [46]: 1.9 µM
- TGI [46]: > 25 µM
- GI50 [47]: 7.29 µM
- TGI [47]: 17.4 µM
- GI50 [48]: 3.93 µM
- TGI [48]: 15.3 µM
- GI50 [49]: 1.89 µM
- TGI [49]: > 20.1 µM
- GI50 [50]: 7.46 µM
- TGI [50]: 21.7 µM
- GI50 [51]: 2.38 µM
- TGI [51]: 14.8 µM
- GI50 [52]: 1.54 µM
- TGI [52]: 7.76 µM
- GI50 [53]: 5.32 µM
- TGI [53]: 14 µM
- GI50 [54]: 4.33 µM
- TGI [54]: 12.1 µM
- GI50 [55]: 4.98 µM
- TGI [55]: > 21.7 µM
- GI50 [56]: 1.39 µM
- TGI [56]: 9.14 µM
- GI50 [57]: 4.49 µM
- TGI [57]: > 23.4 µM
- GI50 [58]: 4.26 µM
- TGI [58]: 11.9 µM
